PubChem BioAssay AID2060486 (Molecular Pharmacology Branch, DTP, NCI, 2025)

System: IGROV1 complex spheroids (HUVEC, MSC), viability % test/control
Assay: Anticancer human tumor IGROV1 cell line growth inhibition [GQUAD];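 also: spheroids exposed to compounds for 7 days before readout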;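 as to viability, T/C: 100% = DMSO vehicle control viability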
Details: for IC50: curve of first compound; for viability, T/C: stronger effect = lower value
In short: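 Tumor cells were grown as complex spheroids with HUVEC endothelial cells and mesenchymal stem cells as stroma. G-quadruplex stabilizers were combined with targeted agents over half-log dilutions from near the clinical Cmax, or from 10 microM.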

[1] = second compound 0.0316 µM, first compound 0.0316 µM
[2] = second compound 0.0316 µM, first compound 0.1 µM
[3] = second compound 0.0316 µM, first compound 0.316 µM
[4] = second compound 0.0316 µM, first compound 1 µM
[5] = second compound 0.0316 µM, first compound 3.16 µM
[6] = second compound 0.0316 µM, first compound 10 µM
[7] = second compound 0.1 µM, first compound 0.0316 µM
[8] = second compound 0.1 µM, first compound 0.1 µM
[9] = second compound 0.1 µM, first compound 0.316 µM
[10] = second compound 0.1 µM, first compound 1 µM
[11] = second compound 0.1 µM, first compound 3.16 µM
[12] = second compound 0.1 µM, first compound 10 µM
[13] = second compound 0.316 µM, first compound 0.0316 µM
[14] = second compound 0.316 µM, first compound 0.1 µM
[15] = second compound 0.316 µM, first compound 0.316 µM
[16] = second compound 0.316 µM, first compound 1 µM
[17] = second compound 0.316 µM, first compound 3.16 µM
[18] = second compound 0.316 µM, first compound 10 µM
[19] = second compound 1 µM, first compound 0.0316 µM
[20] = second compound 1 µM, first compound 0.1 µM
[21] = second compound 1 µM, first compound 0.316 µM
[22] = second compound 1 µM, first compound 1 µM
[23] = second compound 1 µM, first compound 3.16 µM
[24] = second compound 1 µM, first compound 10 µM
[25] = second compound 3.16 µM, first compound 0.0316 µM
[26] = second compound 3.16 µM, first compound 0.1 µM
[27] = second compound 3.16 µM, first compound 0.316 µM
[28] = second compound 3.16 µM, first compound 1 µM
[29] = second compound 3.16 µM, first compound 3.16 µM
[30] = second compound 3.16 µM, first compound 10 µM
[31] = second compound 10 µM, first compound 0.0316 µM
[32] = second compound 10 µM, first compound 0.1 µM
[33] = second compound 10 µM, first compound 0.316 µM
[34] = second compound 10 µM, first compound 1 µM
[35] = second compound 10 µM, first compound 3.16 µM
[36] = second compound 10 µM, first compound 10 µM

## C#Cc1c(F)ccc2cc(O)cc(-c3ncc4c(N5CC6CCC(C5)N6)nc(OCC56CCCN5CC(F)C6)nc4c3F)c12 (stereo unspecified) + CN(C)c1ccc(Nc2c3ccc(NC(=O)CCN4CCCC4)cc3nc3cc(NC(=O)CCN4CCCC4)ccc23)cc1
Second compound 0.0316 µM
  IC50: > 10000 nM
Second compound 0.1 µM
  IC50: > 10000 nM
Second compound 0.316 µM
  IC50: > 10000 nM
Second compound 1 µM
  IC50: 8190 nM
Second compound 3.16 µM
  IC50: 5090 nM
Second compound 10 µM
  IC50: 378 nM
[1]
  viability, T/C: 106%
[2]
  viability, T/C: 76.6%
[3]
  viability, T/C: 97.9%
[4]
  viability, T/C: 78.1%
[5]
  viability, T/C: 84.5%
[6]
  viability, T/C: 62.2%
[7]
  viability, T/C: 97.3%
[8]
  viability, T/C: 83.7%
[9]
  viability, T/C: 88%
[10]
  viability, T/C: 84.3%
[11]
  viability, T/C: 93%
[12]
  viability, T/C: 62.1%
[13]
  viability, T/C: 87.8%
[14]
  viability, T/C: 99.1%
[15]
  viability, T/C: 76.3%
[16]
  viability, T/C: 86%
[17]
  viability, T/C: 89.5%
[18]
  viability, T/C: 54%
[19]
  viability, T/C: 86.1%
[20]
  viability, T/C: 89%
[21]
  viability, T/C: 86.7%
[22]
  viability, T/C: 73.6%
[23]
  viability, T/C: 74.1%
[24]
  viability, T/C: 44.8%
[25]
  viability, T/C: 86.4%
[26]
  viability, T/C: 85.4%
[27]
  viability, T/C: 87.7%
[28]
  viability, T/C: 79%
[29]
  viability, T/C: 66.2%
[30]
  viability, T/C: 27.9%
[31]
  viability, T/C: 50%
[32]
  viability, T/C: 50.4%
[33]
  viability, T/C: 59.8%
[34]
  viability, T/C: 38%
[35]
  viability, T/C: 17.2%
[36]
  viability, T/C: 5.16%

## C=CCn1c(=O)c2cnc(Nc3ccc(N4CCN(C)CC4)cc3)nc2n1-c1cccc(C(C)(C)O)n1 + CN(C)c1ccc(Nc2c3ccc(NC(=O)CCN4CCCC4)cc3nc3cc(NC(=O)CCN4CCCC4)ccc23)cc1
Second compound 0.0316 µM
  IC50: 153 nM
Second compound 0.1 µM
  IC50: 145 nM
Second compound 0.316 µM
  IC50: 138 nM
Second compound 1 µM
  IC50: 136 nM
Second compound 3.16 µM
  IC50: 112 nM
Second compound 10 µM
  IC50: < 31.6 nM
[1]
  viability, T/C: 92.4%
[2]
  viability, T/C: 72.3%
[3]
  viability, T/C: 12.3%
[4]
  viability, T/C: 3.27%
[5]
  viability, T/C: 3.29%
[6]
  viability, T/C: 2.49%
[7]
  viability, T/C: 90.8%
[8]
  viability, T/C: 68.1%
[9]
  viability, T/C: 12.1%
[10]
  viability, T/C: 2.73%
[11]
  viability, T/C: 2.54%
[12]
  viability, T/C: 2.34%
[13]
  viability, T/C: 76.4%
[14]
  viability, T/C: 65.5%
[15]
  viability, T/C: 10.3%
[16]
  viability, T/C: 3.01%
[17]
  viability, T/C: 2.63%
[18]
  viability, T/C: 1.87%
[19]
  viability, T/C: 61.6%
[20]
  viability, T/C: 69.2%
[21]
  viability, T/C: 8.29%
[22]
  viability, T/C: 2.65%
[23]
  viability, T/C: 2.66%
[24]
  viability, T/C: 2.32%
[25]
  viability, T/C: 67.7%
[26]
  viability, T/C: 54.5%
[27]
  viability, T/C: 7.41%
[28]
  viability, T/C: 3.03%
[29]
  viability, T/C: 2.47%
[30]
  viability, T/C: 1.97%
[31]
  viability, T/C: 37.6%
[32]
  viability, T/C: 27.4%
[33]
  viability, T/C: 5.31%
[34]
  viability, T/C: 2.61%
[35]
  viability, T/C: 1.87%
[36]
  viability, T/C: 1.28%

## CC(C)(O)C1CCC(Nc2ccc3ncc(-c4cccc(C(F)(F)F)c4)n3n2)CC1 (stereo unspecified) + CN(C)c1ccc(Nc2c3ccc(NC(=O)CCN4CCCC4)cc3nc3cc(NC(=O)CCN4CCCC4)ccc23)cc1
Second compound 0.0316 µM
  IC50: 2180 nM
Second compound 0.1 µM
  IC50: 2240 nM
Second compound 0.316 µM
  IC50: 1420 nM
Second compound 1 µM
  IC50: 1750 nM
Second compound 3.16 µM
  IC50: 1370 nM
Second compound 10 µM
  IC50: 134 nM
[1]
  viability, T/C: 103%
[2]
  viability, T/C: 83.8%
[3]
  viability, T/C: 74.8%
[4]
  viability, T/C: 74%
[5]
  viability, T/C: 32.3%
[6]
  viability, T/C: 35.5%
[7]
  viability, T/C: 101%
[8]
  viability, T/C: 91.8%
[9]
  viability, T/C: 70.6%
[10]
  viability, T/C: 70.1%
[11]
  viability, T/C: 36.7%
[12]
  viability, T/C: 39.5%
[13]
  viability, T/C: 93.7%
[14]
  viability, T/C: 63.9%
[15]
  viability, T/C: 85.9%
[16]
  viability, T/C: 58%
[17]
  viability, T/C: 30.1%
[18]
  viability, T/C: 33.2%
[19]
  viability, T/C: 86.6%
[20]
  viability, T/C: 92.6%
[21]
  viability, T/C: 78.8%
[22]
  viability, T/C: 72.3%
[23]
  viability, T/C: 26.2%
[24]
  viability, T/C: 23%
[25]
  viability, T/C: 77%
[26]
  viability, T/C: 81.9%
[27]
  viability, T/C: 78.2%
[28]
  viability, T/C: 61.9%
[29]
  viability, T/C: 18.6%
[30]
  viability, T/C: 9.94%
[31]
  viability, T/C: 60.9%
[32]
  viability, T/C: 54.3%
[33]
  viability, T/C: 37.5%
[34]
  viability, T/C: 25.9%
[35]
  viability, T/C: 5.34%
[36]
  viability, T/C: 2.55%
